Reference: patent publication US20020077356A1, “Nonsteroidal antiinflammatory agents” (priority 2000, published 2002)
Where two headings read alike, the source gives them in different places.

Assays:
[1] = target: T1, glucocorticoid receptor (GR) (Homo sapiens, UniProt P04150); experiment: glucocorticoid receptor (GR) binding test; settings: cytosol preparations of Sf9 cells infected with recombinant baculoviruses coding for the GR; 10 nM [3H]-dexamethasone
T1 construct: made in house; host or cells: Sf9 insect cells infected with recombinant baculovirus; cytosol preparation
T1 sequence (P04150 1-777): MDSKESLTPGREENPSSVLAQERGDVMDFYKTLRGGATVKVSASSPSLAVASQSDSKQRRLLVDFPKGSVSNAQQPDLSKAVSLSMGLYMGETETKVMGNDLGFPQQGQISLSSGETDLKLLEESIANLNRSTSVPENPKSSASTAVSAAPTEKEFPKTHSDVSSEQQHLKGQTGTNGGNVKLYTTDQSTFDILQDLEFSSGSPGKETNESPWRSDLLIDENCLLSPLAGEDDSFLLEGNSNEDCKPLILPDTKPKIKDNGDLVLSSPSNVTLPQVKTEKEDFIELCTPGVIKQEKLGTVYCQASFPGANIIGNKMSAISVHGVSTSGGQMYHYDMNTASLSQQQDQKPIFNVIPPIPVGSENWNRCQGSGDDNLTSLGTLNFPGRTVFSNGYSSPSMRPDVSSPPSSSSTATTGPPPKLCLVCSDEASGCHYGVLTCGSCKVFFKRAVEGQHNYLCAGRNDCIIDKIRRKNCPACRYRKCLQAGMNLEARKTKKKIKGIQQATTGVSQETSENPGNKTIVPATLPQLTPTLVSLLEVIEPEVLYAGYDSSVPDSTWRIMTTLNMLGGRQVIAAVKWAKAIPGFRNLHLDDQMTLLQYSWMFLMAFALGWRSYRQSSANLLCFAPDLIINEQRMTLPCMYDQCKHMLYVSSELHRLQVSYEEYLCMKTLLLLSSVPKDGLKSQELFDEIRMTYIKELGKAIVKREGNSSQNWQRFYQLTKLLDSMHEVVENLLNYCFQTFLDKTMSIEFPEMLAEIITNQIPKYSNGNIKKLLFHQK
Excerpt: The binding of substances to the glucocorticoid receptor (GR) is examined with the aid of a recombinantly produced receptor. Cytosol preparations of Sf9 cells, which had been infected with recombinant baculoviruses, which code for the GR, are used for the binding studies.

[2] = system: secretion of cytokine IL-8 in the human monocyte cell line THP-1; experiment: inhibition of LPS-triggered IL-8 secretion in THP-1 cells; type: cell-based; design: Inhibition of IL-8 Secretion Effectiveness: concentration or dose not given beside the values; settings: ELISA of supernatant
Method: The concentration of the cytokines was determined in the supernatant with use of commercially available ELISA kits.
The potency of the antiinflammatory action is determined in a cell test by the inhibition of the secretion of cytokine IL-8. […] The concentration of the cytokines was determined in the supernatant by means of commercially available ELISA kits. In this connection, the compounds of formula 1 show a high to very high potency and action in inhibition (see Table 10).

[3] = system: croton oil-induced inflammation in rats and mice; experiment: croton oil-induced inflammation (ear edema); type: in vivo; settings: systemically two hours before croton oil, ear weight after 16-24 hours
Method: The antiinflammatory actions of the compounds of general formula I were tested in the animal experiment by testing in the croton oil-induced inflammation in rats and mice (J. Exp. Med. (1995), 182, 99-108). In this connection, croton oil in ethanolic solution was administered topically to the animals' ears. The test substances were also administered topically or systemically simultaneously with or two hours before the croton oil. After 16-24 hours, the ear weight was measured as a yardstick of the inflammatory edema, the peroxidase activity was measured as a yardstick of the invasions of granuloctyes, and the elastase activity was measured as a yardstick of the invasions of neutrophilic granuloctyes. In this test, the compounds of general formula I inhibit the three above-mentioned inflammation parameters both after topical administration and after systemic administration.
The antiinflammatory actions of the compounds of general formula I were tested in the animal experiment in the croton oil-induced inflammation in rats and mice (J. Exp. Med. (1995), 182, 99-108). In this respect, croton oil in an ethanolic solution was administered topically to the ears in the animals. The test substances were systemically administered two hours before the croton oil. After 16-24 hours, the ear weight was measured as a yardstick of the inflammatory edema.

[4] = system: tyrosinamino transferase (TAT); settings: in vivo
Method: (§1) The activity of this enzyme can be determined photometrically from liver homogenates and represents a good yardstick of the undesirable metabolic actions of the glucocorticoids. To measure the TAT induction, the animals are sacrificed 8 hours after the test substances are administered, the livers are removed, and the TAT activity in the homogenate is measured.
(§2) As a parameter for the side effects of the steroid-induced catabolic metabolism, the activity of the enzyme tyrosinamino transferase (TAT) was determined from liver homogenates by photometry. The activity represents a good yardstick of the undesirable metabolic actions of the glucocorticoids. To measure the TAT induction, the animals are sacrificed 8 hours after the test substances are administered, the livers are removed, and the TAT activity in the homogenate is measured.

[5] = system: tyrosinamino transferase (TAT); experiment: induction of tyrosinamino transferase (TAT) activity in liver homogenates; settings: liver homogenate 8 hours after administration, n-fold increase compared to untreated animals
Method: as §1, §2

Row | IC50 [1] | IC50 [2] | Induction factor for TAT with 3 mg/kg [4] | Induction factor for TAT with 30 mg/kg [4] | Induction factor for TAT with 3 mg/kg ([5]; 3 mg/kg) | Induction factor for TAT with 30 mg/kg ([5]; 30 mg/kg) | IC50 ([2]; Homo sapiens) | SMILES | Inhibition of IL-8 Secretion Effectiveness [2] | Edema inhibition with 3 mg/kg [3] | Edema inhibition with 30 mg/kg [3]
1 | < 0.3 nM | 9.6 nM |  |  |  |  |  | Cc1noc(=O)c2ccc(NC(=O)C(O)(CC3(c4cc(F)ccc4Cl)CC3)C(F)(F)F)cc12 (single isomer, unassigned; (+)) [Example 16, compound 13, (+)-6-[3-{1-(2-chloro-5-fluorophenyl)-cyclopropyl}-2-hydroxy-2-trifluoromethyl-propionyl]-amino-4-methyl-2,3-benzoxazin-1-one] | 58% | 47% | 106%
2 | 0.62 nM | 10 nM | 1.3 | 2.0 |  |  |  | Cc1noc(=O)c2ccc(NC(=O)C(O)(CC3(c4cc(F)ccc4Cl)CCC3)C(F)(F)F)cc12 (single isomer, unassigned; (+)) [Example 16, compound 16, (+)-6-[3-{1-(2-chloro-5-fluorophenyl)-cyclobutyl}-2-hydroxy-2-trifluoromethyl-propionyl]-amino-4-methyl-2,3-benzoxazin-1-one] | 80% | 54% | 78%
3 | 1.1 nM | 30 nM |  |  |  |  |  | Cc1noc(=O)c2ccc(NC(=O)C(O)(CC3(c4cc(F)ccc4C(F)(F)F)CCC3)C(F)(F)F)cc12 (single isomer, unassigned; (+)) [Example 16, compound 33, (+)-6-[3-{1-(5-fluoro-2-trifluoromethyl-phenyl)-cyclobutyl}-2-hydroxy-2-trifluoromethylpropionyl]-amino-4-methyl-2,3-benzoxazin-1-one] | 45% | 77% | 86%

The remaining lines, values behind:

Row | SMILES | IC50 [1] | IC50 [2] | Induction factor for TAT with 3 mg/kg [4] | Induction factor for TAT with 30 mg/kg [4] | Induction factor for TAT with 3 mg/kg ([5]; 3 mg/kg) | Induction factor for TAT with 30 mg/kg ([5]; 30 mg/kg) | IC50 ([2]; Homo sapiens) | Inhibition of IL-8 Secretion Effectiveness [2] | Edema inhibition with 3 mg/kg [3] | Edema inhibition with 30 mg/kg [3]
4 | Cc1noc(=O)c2ccc(NC(=O)C(O)(CC(C)(C)c3ccc(F)cc3Cl)C(F)(F)F)cc12 (single isomer, unassigned; (+)) [Example 3, compound 9, (+)-6-[4-(2-chloro-4-fluoro-phenyl)-2-hydroxy-4-methyl-2-trifluoromethylvaleroyl]-amino-4-methyl-2,3-benzoxazin-1-one] | < 0.3 nM | 65 nM |  |  |  |  |  | 51% | 50% | 92%
5 | Cc1noc(=O)c2ccc(NC(=O)C(O)(CC3(c4ccccc4C(F)(F)F)CCC3)C(F)(F)F)cc12 (single isomer, unassigned; (+)) [Example 16, compound 26, (+)-6-[3-{1-(2-trifluoromethyl-phenyl)-cyclobutyl}-2-hydroxy-2-trifluoromethylpropionyl]-amino-4-methyl-2,3-benzoxazin-1-one] | 16 nM | 4.3 nM | 1.4 | 3.7 |  |  |  | 77% | 11% | 81%
6 | C[C@]12C=CC(=O)C=C1CC[C@@H]1[C@@H]2[C@@H](O)C[C@@]2(C)[C@H]1CC[C@]2(O)C(=O)CO [Prednisolone, reference compound] |  |  |  |  | 2.6 | 8.0 | 24 nM | 95% | 35% | 84%
